Source: PubChem BioAssay (NCI)
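Cultured in 96-well plates, cells were exposed to test compound for 48 hours across five concentrations. TGI: concentration producing complete growth inhibition.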

What was measured:
Assay in all cases: NCI anticancer screen, dose series, 48 h
NCI/ADR-RES ovarian = system: NCI/ADR-RES ovarian
OVCAR-8 ovarian = system: OVCAR-8 ovarian
UACC-257 melanoma = system: UACC-257 melanoma
SNB-75 CNS = system: SNB-75 CNS
IGROV1 ovarian = system: IGROV1 ovarian
HCT-15 colon = system: HCT-15 colon
LOX IMVI melanoma = system: LOX IMVI melanoma
PC-3 prostate = system: PC-3 prostate
SF-539 CNS = system: SF-539 CNS

CS(=O)(=O)O.[Ag]
TGI (NCI/ADR-RES ovarian): 74.3 µM
TGI (OVCAR-8 ovarian): > 100 µM
TGI (UACC-257 melanoma): 24.4 µM
TGI (SNB-75 CNS): 35.6 µM
TGI (IGROV1 ovarian): 13.7 µM
TGI (HCT-15 colon): 36.5 µM
TGI (LOX IMVI melanoma): 73.9 µM
TGI (PC-3 prostate): 27.2 µM
TGI (SF-539 CNS): 32.1 µM

CCCCCCOc1ccc(NC2=C(Cl)C(=O)c3ncccc3C2=O)cc1
TGI (OVCAR-8 ovarian): > 10 µM
TGI (UACC-257 melanoma): 4.54 µM
TGI (SNB-75 CNS): 3.93 µM
TGI (IGROV1 ovarian): 7.85 µM
TGI (HCT-15 colon): 4.64 µM
TGI (LOX IMVI melanoma): 4.15 µM
TGI (PC-3 prostate): 3.97 µM
TGI (SF-539 CNS): 3.3 µM

O=C(O)C1SCCS1
TGI (NCI/ADR-RES ovarian): > 100 µM
TGI (OVCAR-8 ovarian): > 100 µM
TGI (UACC-257 melanoma): > 100 µM
TGI (SNB-75 CNS): > 100 µM
TGI (IGROV1 ovarian): > 100 µM
TGI (HCT-15 colon): > 100 µM
TGI (LOX IMVI melanoma): > 100 µM
TGI (PC-3 prostate): > 100 µM

CN(c1ccccc1Cl)S(=O)(=O)c1ccccc1[N+](=O)[O-]
TGI (NCI/ADR-RES ovarian): 95.9 µM
TGI (OVCAR-8 ovarian): > 100 µM
TGI (UACC-257 melanoma): > 100 µM
TGI (SNB-75 CNS): > 100 µM
TGI (IGROV1 ovarian): > 100 µM
TGI (HCT-15 colon): > 100 µM
TGI (LOX IMVI melanoma): > 100 µM
TGI (PC-3 prostate): > 100 µM
TGI (SF-539 CNS): > 100 µM

COc1ccc2c(c1)CC[C@@H]1[C@@H]2CC[C@]2(C)C(=O)/C(=C/c3cc(OC)c(OC)c(OC)c3)C[C@@H]12
TGI (NCI/ADR-RES ovarian): 34.6 µM
TGI (SNB-75 CNS): 38.9 µM
TGI (HCT-15 colon): > 100 µM
TGI (PC-3 prostate): 26.9 µM
TGI (SF-539 CNS): 67 µM

C/C=C\C(CC(=O)NCCC1CN(C(=O)c2ccccc2)c2ccccc21)CC(=O)OC (configuration not stated)
TGI (NCI/ADR-RES ovarian): > 100 µM
TGI (OVCAR-8 ovarian): > 100 µM
TGI (UACC-257 melanoma): > 100 µM
TGI (SNB-75 CNS): > 100 µM
TGI (IGROV1 ovarian): > 100 µM
TGI (HCT-15 colon): > 100 µM
TGI (PC-3 prostate): > 100 µM

OCCO[P+]1(OCCO)n2c3ccc2C(c2ccccc2)=C2C=CC(=N2)C(c2ccccc2)=c2ccc(n21)=C(c1ccccc1)C1=NC(=C3c2ccccc2)C=C1
TGI (NCI/ADR-RES ovarian): 41.4 µM
TGI (OVCAR-8 ovarian): 0.17 µM
TGI (UACC-257 melanoma): 0.0545 µM
TGI (SNB-75 CNS): 0.273 µM
TGI (HCT-15 colon): 3.59 µM
TGI (PC-3 prostate): 1.59 µM

c1ccc(C2=C(c3ccccc3)P(c3ccccc3)C2)cc1 (configuration not stated)
TGI (NCI/ADR-RES ovarian): > 100 µM
TGI (OVCAR-8 ovarian): > 100 µM
TGI (UACC-257 melanoma): > 100 µM
TGI (SNB-75 CNS): > 100 µM
TGI (IGROV1 ovarian): > 100 µM
TGI (HCT-15 colon): > 100 µM
TGI (PC-3 prostate): > 100 µM
TGI (SF-539 CNS): > 100 µM

COC(=O)CCN(CCC(=O)OC)C1CC1
TGI (NCI/ADR-RES ovarian): > 100 µM
TGI (OVCAR-8 ovarian): > 100 µM
TGI (UACC-257 melanoma): > 100 µM
TGI (SNB-75 CNS): > 100 µM
TGI (IGROV1 ovarian): > 100 µM
TGI (HCT-15 colon): > 100 µM
TGI (LOX IMVI melanoma): > 100 µM
TGI (SF-539 CNS): > 100 µM

COc1cc(C(SCc2ccccc2)SCc2ccccc2)ccc1O
TGI (NCI/ADR-RES ovarian): > 10 µM
TGI (OVCAR-8 ovarian): > 10 µM
TGI (SNB-75 CNS): > 10 µM
TGI (IGROV1 ovarian): > 10 µM
TGI (HCT-15 colon): > 10 µM
TGI (LOX IMVI melanoma): > 10 µM
TGI (PC-3 prostate): > 10 µM
TGI (SF-539 CNS): > 10 µM

CN1CC2CC(C1)c1cccc(=O)n1C2 (configuration not stated)
TGI (NCI/ADR-RES ovarian): > 100 µM
TGI (OVCAR-8 ovarian): > 100 µM
TGI (UACC-257 melanoma): > 100 µM
TGI (SNB-75 CNS): > 100 µM
TGI (IGROV1 ovarian): > 100 µM
TGI (HCT-15 colon): > 100 µM
TGI (LOX IMVI melanoma): > 100 µM
TGI (PC-3 prostate): > 100 µM

Cc1c(F)c(N)c2c(=O)cc(-c3ccc(NC(=O)C(N)CCCN=C(N)N)c(F)c3)oc2c1F (configuration not stated)
TGI (NCI/ADR-RES ovarian): > 100 µM
TGI (OVCAR-8 ovarian): > 82.8 µM
TGI (UACC-257 melanoma): 7.41 µM
TGI (IGROV1 ovarian): 10.8 µM
TGI (HCT-15 colon): > 100 µM
TGI (LOX IMVI melanoma): > 100 µM
TGI (PC-3 prostate): > 76.6 µM
TGI (SF-539 CNS): 40.7 µM
